Experimental data taken from PubChem BioAssay AID1963982 (Molecular Pharmacology Branch, DTP, NCI, 2024).

Test system: 313798-341-R-J2-PDC spheroids, viability
Experiment: Anticancer human tumor 313798-341-R-J2-PDC patient-derived cervical squamous cell carcinoma cell line growth inhibition [PI3K]
Details: spheroids with HUVEC and MSC; for IC50: curve of first compound; for viability, T/C: stronger effect = lower value
How it was run: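 Agents were dosed from a top concentration near clinical Cmax (otherwise 10 microM) in half-log decrements, alone or combined with PI3K inhibitors. The spheroids contain tumor cells plus endothelial (HUVEC) and MSC stroma; viability is measured.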
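Also: spheroids exposed to compounds for seven days.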
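For viability, T/C in this document: 100% = DMSO vehicle control viability.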

SMILES: CNC(=O)c1ccc(N2C(=S)N(c3ccc(C#N)c(C(F)(F)F)c3)C(=O)C2(C)C)cc1F + CC(Nc1ncnc2nc[nH]c12)c1cc2cccc(Cl)c2c(=O)n1-c1ccccc1
- IC50 (second compound 0.0316 µM): > 10 µM
- IC50 (second compound 0.1 µM): > 10 µM
- IC50 (second compound 0.316 µM): > 10 µM
- IC50 (second compound 1 µM): > 10 µM
- IC50 (second compound 3.16 µM): > 10 µM
- IC50 (second compound 10 µM): > 10 µM
- viability, T/C (second compound 0.0316 µM, first compound 0.0316 µM): 104%
- viability, T/C (second compound 0.0316 µM, first compound 0.1 µM): 110%
- viability, T/C (second compound 0.0316 µM, first compound 0.316 µM): 100%
- viability, T/C (second compound 0.0316 µM, first compound 1 µM): 92.4%
- viability, T/C (second compound 0.0316 µM, first compound 3.16 µM): 121%
- viability, T/C (second compound 0.0316 µM, first compound 10 µM): 98.8%
- viability, T/C (second compound 0.1 µM, first compound 0.0316 µM): 102%
- viability, T/C (second compound 0.1 µM, first compound 0.1 µM): 101%
- viability, T/C (second compound 0.1 µM, first compound 0.316 µM): 112%
- viability, T/C (second compound 0.1 µM, first compound 1 µM): 99.4%
- viability, T/C (second compound 0.1 µM, first compound 3.16 µM): 106%
- viability, T/C (second compound 0.1 µM, first compound 10 µM): 101%
- viability, T/C (second compound 0.316 µM, first compound 0.0316 µM): 94.8%
- viability, T/C (second compound 0.316 µM, first compound 0.1 µM): 98.3%
- viability, T/C (second compound 0.316 µM, first compound 0.316 µM): 92.6%
- viability, T/C (second compound 0.316 µM, first compound 1 µM): 98.8%
- viability, T/C (second compound 0.316 µM, first compound 3.16 µM): 98.3%
- viability, T/C (second compound 0.316 µM, first compound 10 µM): 96.5%
- viability, T/C (second compound 1 µM, first compound 0.0316 µM): 95%
- viability, T/C (second compound 1 µM, first compound 0.1 µM): 96.5%
- viability, T/C (second compound 1 µM, first compound 0.316 µM): 97.8%
- viability, T/C (second compound 1 µM, first compound 1 µM): 109%
- viability, T/C (second compound 1 µM, first compound 3.16 µM): 100%
- viability, T/C (second compound 1 µM, first compound 10 µM): 93.2%
- viability, T/C (second compound 3.16 µM, first compound 0.0316 µM): 111%
- viability, T/C (second compound 3.16 µM, first compound 0.1 µM): 101%
- viability, T/C (second compound 3.16 µM, first compound 0.316 µM): 92.9%
- viability, T/C (second compound 3.16 µM, first compound 1 µM): 93.9%
- viability, T/C (second compound 3.16 µM, first compound 3.16 µM): 97.1%
- viability, T/C (second compound 3.16 µM, first compound 10 µM): 84.8%
- viability, T/C (second compound 10 µM, first compound 0.0316 µM): 82.8%
- viability, T/C (second compound 10 µM, first compound 0.1 µM): 86.1%
- viability, T/C (second compound 10 µM, first compound 0.316 µM): 85.5%
- viability, T/C (second compound 10 µM, first compound 1 µM): 85.6%
- viability, T/C (second compound 10 µM, first compound 3.16 µM): 88.4%
- viability, T/C (second compound 10 µM, first compound 10 µM): 73.2%

SMILES: Cn1cnc2c(F)c(Nc3ccc(Br)cc3Cl)c(C(=O)NOCCO)cc21 + CC(Nc1ncnc2nc[nH]c12)c1cc2cccc(Cl)c2c(=O)n1-c1ccccc1
- IC50 (second compound 0.0316 µM): > 3 µM
- IC50 (second compound 0.1 µM): > 3 µM
- IC50 (second compound 0.316 µM): > 3 µM
- IC50 (second compound 1 µM): > 3 µM
- IC50 (second compound 3.16 µM): > 3 µM
- IC50 (second compound 10 µM): > 3 µM
- viability, T/C (second compound 0.0316 µM, first compound 0.00949 µM): 97.3%
- viability, T/C (second compound 0.0316 µM, first compound 0.03 µM): 99%
- viability, T/C (second compound 0.0316 µM, first compound 0.0949 µM): 92.1%
- viability, T/C (second compound 0.0316 µM, first compound 0.3 µM): 91.4%
- viability, T/C (second compound 0.0316 µM, first compound 0.949 µM): 89.2%
- viability, T/C (second compound 0.0316 µM, first compound 3 µM): 77.9%
- viability, T/C (second compound 0.1 µM, first compound 0.00949 µM): 85.7%
- viability, T/C (second compound 0.1 µM, first compound 0.03 µM): 95.7%
- viability, T/C (second compound 0.1 µM, first compound 0.0949 µM): 89%
- viability, T/C (second compound 0.1 µM, first compound 0.3 µM): 95.2%
- viability, T/C (second compound 0.1 µM, first compound 0.949 µM): 80%
- viability, T/C (second compound 0.1 µM, first compound 3 µM): 81.3%
- viability, T/C (second compound 0.316 µM, first compound 0.00949 µM): 87.2%
- viability, T/C (second compound 0.316 µM, first compound 0.03 µM): 93.7%
- viability, T/C (second compound 0.316 µM, first compound 0.0949 µM): 87.6%
- viability, T/C (second compound 0.316 µM, first compound 0.3 µM): 92.7%
- viability, T/C (second compound 0.316 µM, first compound 0.949 µM): 87.1%
- viability, T/C (second compound 0.316 µM, first compound 3 µM): 74.6%
- viability, T/C (second compound 1 µM, first compound 0.00949 µM): 96.6%
- viability, T/C (second compound 1 µM, first compound 0.03 µM): 98.1%
- viability, T/C (second compound 1 µM, first compound 0.0949 µM): 90.3%
- viability, T/C (second compound 1 µM, first compound 0.3 µM): 86.1%
- viability, T/C (second compound 1 µM, first compound 0.949 µM): 90.1%
- viability, T/C (second compound 1 µM, first compound 3 µM): 71.5%
- viability, T/C (second compound 3.16 µM, first compound 0.00949 µM): 92.4%
- viability, T/C (second compound 3.16 µM, first compound 0.03 µM): 87.7%
- viability, T/C (second compound 3.16 µM, first compound 0.0949 µM): 94.3%
- viability, T/C (second compound 3.16 µM, first compound 0.3 µM): 89%
- viability, T/C (second compound 3.16 µM, first compound 0.949 µM): 79.7%
- viability, T/C (second compound 3.16 µM, first compound 3 µM): 76.8%
- viability, T/C (second compound 10 µM, first compound 0.00949 µM): 75.2%
- viability, T/C (second compound 10 µM, first compound 0.03 µM): 81.3%
- viability, T/C (second compound 10 µM, first compound 0.0949 µM): 80.8%
- viability, T/C (second compound 10 µM, first compound 0.3 µM): 73.8%
- viability, T/C (second compound 10 µM, first compound 0.949 µM): 80.5%
- viability, T/C (second compound 10 µM, first compound 3 µM): 53.1%
